Data taken from US12421225B2, “Heteroaromatic amide derivative and medicament containing the same” (KAKEN PHARMACEUTICAL CO., LTD., priority 2018, dated 2025).

Tests used:
[1] = molecular target: human Nav1.7 (Homo sapiens (Human), UniProt Q15858); assay: Human Nav1.7 inhibitory activity evaluation (automated patch clamp QPatch16X, HEK293A cells stably expressing human Nav1.7 and human Navβ1); type: cell-based
Procedure, shortened: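 IC50 calculated from the concentration-response of inward current evoked by the second −10 mV, 50 ms depolarisation, which follows a 15 s conditioning step at roughly 30-40% inactivation and a 100 ms −120 mV interval. Cells: HEK293A expressing human Nav1.7/Navβ1, automated patch clamp, room temperature, 0.1% DMSO final.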

[2] = molecular target: human Nav1.5 (Homo sapiens (Human), UniProt Q14524); assay: Human Nav1.5 inhibitory activity evaluation (automated patch clamp QPatch16X, HEK293 cells stably expressing human Nav1.5); type: cell-based
Procedure, shortened: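 IC50 derived from concentration-response of inward current at the 20th of 20 action-potential-mimicking pulses (holding −80 mV, leak corrected with −100 mV step). HEK293 cells stably expressing human Nav1.5, room temperature, extracellular pH 7.4, intracellular CsF-based pH 7.3, 0.1% DMSO.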

[3] = HEK293A cells stably expressing human Nav1.7 and human Navβ1, automated patch clamp QPatch16X
[4] = HEK293 cells stably expressing human Nav1.5, automated patch clamp QPatch16X
[5] = human Nav1.7, automated patch clamp
[6] = human Nav1.5, automated patch clamp

Sequence of human Nav1.7 (Q15858 whole entry): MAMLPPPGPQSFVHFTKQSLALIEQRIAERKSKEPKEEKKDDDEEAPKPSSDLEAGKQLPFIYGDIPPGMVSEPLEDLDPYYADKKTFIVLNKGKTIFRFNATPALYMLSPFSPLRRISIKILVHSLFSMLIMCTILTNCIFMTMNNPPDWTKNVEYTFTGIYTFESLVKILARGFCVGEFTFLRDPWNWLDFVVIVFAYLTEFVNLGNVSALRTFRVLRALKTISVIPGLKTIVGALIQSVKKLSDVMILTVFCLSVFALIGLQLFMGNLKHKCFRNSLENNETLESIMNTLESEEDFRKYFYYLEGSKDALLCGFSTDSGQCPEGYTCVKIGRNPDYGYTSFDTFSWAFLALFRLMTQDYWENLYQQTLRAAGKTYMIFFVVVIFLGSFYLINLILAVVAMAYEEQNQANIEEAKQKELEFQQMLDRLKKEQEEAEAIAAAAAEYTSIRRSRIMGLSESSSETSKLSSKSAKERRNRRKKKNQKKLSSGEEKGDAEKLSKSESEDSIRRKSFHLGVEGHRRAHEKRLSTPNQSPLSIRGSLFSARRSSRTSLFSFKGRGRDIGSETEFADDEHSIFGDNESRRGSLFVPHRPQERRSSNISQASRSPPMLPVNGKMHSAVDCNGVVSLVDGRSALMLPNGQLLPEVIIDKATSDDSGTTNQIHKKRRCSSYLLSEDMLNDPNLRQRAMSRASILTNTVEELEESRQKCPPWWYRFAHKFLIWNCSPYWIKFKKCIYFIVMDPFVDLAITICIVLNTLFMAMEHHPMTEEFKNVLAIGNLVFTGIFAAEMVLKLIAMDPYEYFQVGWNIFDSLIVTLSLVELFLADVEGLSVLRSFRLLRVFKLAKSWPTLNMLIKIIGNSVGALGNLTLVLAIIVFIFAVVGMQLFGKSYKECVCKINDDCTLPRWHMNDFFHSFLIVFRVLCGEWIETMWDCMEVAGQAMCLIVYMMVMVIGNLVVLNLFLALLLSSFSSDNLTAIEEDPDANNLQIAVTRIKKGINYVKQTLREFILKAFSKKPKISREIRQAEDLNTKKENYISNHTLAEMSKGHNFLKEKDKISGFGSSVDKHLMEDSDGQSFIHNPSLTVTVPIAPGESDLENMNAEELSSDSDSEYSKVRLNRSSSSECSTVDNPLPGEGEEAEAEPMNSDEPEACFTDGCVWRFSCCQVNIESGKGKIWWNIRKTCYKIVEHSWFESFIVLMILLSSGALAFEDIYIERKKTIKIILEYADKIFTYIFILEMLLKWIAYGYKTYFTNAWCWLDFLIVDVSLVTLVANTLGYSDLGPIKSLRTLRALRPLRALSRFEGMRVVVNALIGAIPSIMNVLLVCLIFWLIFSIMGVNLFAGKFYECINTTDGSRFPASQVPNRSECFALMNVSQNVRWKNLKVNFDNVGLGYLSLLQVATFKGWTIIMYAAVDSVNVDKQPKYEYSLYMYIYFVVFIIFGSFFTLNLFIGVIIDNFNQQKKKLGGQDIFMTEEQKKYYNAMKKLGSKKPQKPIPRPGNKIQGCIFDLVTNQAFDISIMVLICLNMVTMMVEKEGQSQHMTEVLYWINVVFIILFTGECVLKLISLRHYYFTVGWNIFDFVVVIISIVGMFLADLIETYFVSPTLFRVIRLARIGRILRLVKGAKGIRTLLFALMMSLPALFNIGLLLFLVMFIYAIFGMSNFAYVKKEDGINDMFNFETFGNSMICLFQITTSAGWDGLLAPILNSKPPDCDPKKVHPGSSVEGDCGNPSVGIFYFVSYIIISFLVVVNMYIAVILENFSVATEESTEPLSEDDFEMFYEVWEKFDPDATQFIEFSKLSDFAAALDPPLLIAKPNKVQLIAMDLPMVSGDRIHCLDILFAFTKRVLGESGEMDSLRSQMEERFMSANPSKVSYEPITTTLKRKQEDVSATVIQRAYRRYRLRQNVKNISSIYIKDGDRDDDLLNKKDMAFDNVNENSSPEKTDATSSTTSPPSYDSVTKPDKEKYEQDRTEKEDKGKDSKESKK
Sequence of human Nav1.7 (Q07699 19-218 partner): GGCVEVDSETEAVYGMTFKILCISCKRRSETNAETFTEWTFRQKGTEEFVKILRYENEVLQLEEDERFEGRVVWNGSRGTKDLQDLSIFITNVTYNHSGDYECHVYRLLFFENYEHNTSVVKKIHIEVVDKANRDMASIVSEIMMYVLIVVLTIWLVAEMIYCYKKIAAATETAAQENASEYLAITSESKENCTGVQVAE
Sequence of human Nav1.5 (Q14524 whole entry): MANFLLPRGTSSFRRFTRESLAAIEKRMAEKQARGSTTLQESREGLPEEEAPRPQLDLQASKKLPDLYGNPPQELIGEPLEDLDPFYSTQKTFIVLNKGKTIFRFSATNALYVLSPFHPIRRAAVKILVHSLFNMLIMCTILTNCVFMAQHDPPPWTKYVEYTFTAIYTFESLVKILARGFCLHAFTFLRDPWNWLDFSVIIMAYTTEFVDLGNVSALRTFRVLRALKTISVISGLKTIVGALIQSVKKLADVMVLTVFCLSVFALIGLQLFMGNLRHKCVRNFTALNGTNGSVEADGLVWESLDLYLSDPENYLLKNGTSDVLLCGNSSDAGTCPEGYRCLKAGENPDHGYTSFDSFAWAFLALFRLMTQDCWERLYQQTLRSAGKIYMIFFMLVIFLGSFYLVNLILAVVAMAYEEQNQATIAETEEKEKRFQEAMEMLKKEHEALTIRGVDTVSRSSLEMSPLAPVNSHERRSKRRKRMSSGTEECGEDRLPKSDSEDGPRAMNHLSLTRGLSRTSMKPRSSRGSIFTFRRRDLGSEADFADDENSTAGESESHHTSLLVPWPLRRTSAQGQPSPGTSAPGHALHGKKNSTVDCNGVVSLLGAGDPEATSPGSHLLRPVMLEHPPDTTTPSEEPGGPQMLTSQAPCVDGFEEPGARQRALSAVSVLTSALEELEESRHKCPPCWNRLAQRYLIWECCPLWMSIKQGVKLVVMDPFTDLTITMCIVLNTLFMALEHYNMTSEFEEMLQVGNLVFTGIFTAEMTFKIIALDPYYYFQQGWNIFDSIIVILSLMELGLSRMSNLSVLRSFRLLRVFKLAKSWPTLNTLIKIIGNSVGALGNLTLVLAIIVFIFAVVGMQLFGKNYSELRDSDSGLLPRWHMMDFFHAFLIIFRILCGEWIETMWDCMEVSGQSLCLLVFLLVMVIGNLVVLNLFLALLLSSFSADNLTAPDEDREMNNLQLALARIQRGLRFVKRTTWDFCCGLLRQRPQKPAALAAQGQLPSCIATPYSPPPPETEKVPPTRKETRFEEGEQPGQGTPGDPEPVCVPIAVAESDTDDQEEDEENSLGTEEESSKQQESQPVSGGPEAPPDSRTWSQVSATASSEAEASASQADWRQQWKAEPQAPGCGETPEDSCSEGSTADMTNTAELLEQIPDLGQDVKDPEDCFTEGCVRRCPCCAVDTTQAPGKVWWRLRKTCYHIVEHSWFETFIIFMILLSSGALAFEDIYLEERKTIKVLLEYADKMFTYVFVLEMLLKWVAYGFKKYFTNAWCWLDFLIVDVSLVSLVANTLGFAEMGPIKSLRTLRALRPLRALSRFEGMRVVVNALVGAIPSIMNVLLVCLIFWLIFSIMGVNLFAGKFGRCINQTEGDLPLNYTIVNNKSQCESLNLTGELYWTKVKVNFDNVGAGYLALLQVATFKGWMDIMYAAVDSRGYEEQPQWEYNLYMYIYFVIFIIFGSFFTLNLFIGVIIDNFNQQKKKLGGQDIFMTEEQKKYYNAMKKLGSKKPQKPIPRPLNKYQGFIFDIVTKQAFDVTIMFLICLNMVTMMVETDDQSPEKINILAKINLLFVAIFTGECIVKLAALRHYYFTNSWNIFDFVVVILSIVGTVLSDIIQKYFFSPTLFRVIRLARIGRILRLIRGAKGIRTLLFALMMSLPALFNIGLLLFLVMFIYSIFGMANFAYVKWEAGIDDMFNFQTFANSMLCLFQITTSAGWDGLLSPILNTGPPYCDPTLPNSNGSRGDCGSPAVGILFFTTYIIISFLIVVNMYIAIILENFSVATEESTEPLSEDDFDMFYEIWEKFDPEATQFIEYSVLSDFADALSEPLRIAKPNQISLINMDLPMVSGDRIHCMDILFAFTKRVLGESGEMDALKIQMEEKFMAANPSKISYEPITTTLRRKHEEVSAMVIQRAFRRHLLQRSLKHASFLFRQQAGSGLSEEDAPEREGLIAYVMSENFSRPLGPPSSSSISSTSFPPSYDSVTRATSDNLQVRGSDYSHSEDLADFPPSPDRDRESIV

Structure (SMILES)	IC50 [1, 3] [µM]	IC50 [2, 4] [µM]	IC50 [1, 5] [µM]	IC50 [2, 6] [µM]
O=C(N[C@H]1COc2ccc(-c3ccccn3)cc2C1)c1cc2n(n1)CCC(c1ccccc1F)O2 (stereo partly drawn) [Example 81]	< 1	≥ 3		
N#Cc1ccc2c(c1)C[C@@H](NC(=O)c1cc3n(n1)CC(CCOC1CCC1)O3)CO2 (stereo partly drawn) [Example 470]			< 1	1 to 3
N#Cc1ccc2c(c1)C[C@@H](NC(=O)c1cc3n(n1)CC(CCCOCC(F)(F)F)O3)CO2 (single isomer, unassigned) [246 (isomer B)]			< 1	≥ 3
O=C(N[C@H]1COc2ccc(CCOC(F)(F)F)cc2C1)c1cc2n(n1)CC(COC(F)F)O2 (stereo partly drawn) [Example 462]			< 1	≥ 3
N#Cc1ccc2c(c1)C[C@@H](NC(=O)c1cc3n(n1)CCN(c1ccc(F)cc1)C3)CO2 [Example 278]			< 1	1 to 3
N#Cc1ccc2c(c1)C[C@@H](NC(=O)c1cc3n(n1)CCC(OC(F)(F)F)CO3)CO2 (stereo partly drawn) [Example 252, N—((R)-6-cyanochroman-3-yl)-6-(trifluoromethoxy)-5,6,7,8-tetrahydropyrazolo[5,1-b][1,3]oxazepine-2-carboxamide]			< 1	≥ 3
O=C(NC1COc2cccc(OC(F)(F)F)c2C1)c1cc2n(n1)CCC(c1ccccc1)O2 (stereo not drawn) [Example 78]	< 10	≥ 3		
O=C(N[C@H]1COc2ccccc2C1)c1nc2n(c1-c1ccccc1)CCCC2 [Example 16]	< 1	< 1		
COc1ncc(C(F)(F)F)cc1C1CCc2nc(C(=O)N3CCC(c4ccccc4)C3)cn2C1 (stereo not drawn) [Example 316]			< 10	1 to 3
O=C(N[C@H]1COc2ccccc2C1)c1nc2n(c1-c1ccccc1)CCOC2 [Example 64]	< 10	< 1		
O=C(N[C@H]1COc2ccc(C(F)(F)F)cc2C1O)c1cc2n(n1)C[C@H](COCC1CC1)O2 (single isomer, unassigned; isomer a) [576(isomer A)]			< 1	≥ 3
CN1Cc2nc(C(=O)N[C@H]3COc4cccc(F)c4C3)cn2CC1c1cccc(C(F)(F)F)n1 (stereo partly drawn) [Example 47]	< 10	≥ 3		
CCOCc1ccc2c(c1)C[C@@H](NC(=O)c1cc3n(n1)CCC(c1ccccc1F)O3)CO2 (stereo partly drawn) [Example 83]	< 1	1 to 3		
O=C(N[C@H]1COc2ccc(COCC(F)(F)F)cc2C1)c1cc2n(n1)CC(CCNCC(F)(F)F)O2 (stereo partly drawn) [Example 231]			< 1	≥ 3
N#CC1(COCC2CCn3nc(C(=O)N[C@H]4COc5ccc(Cl)cc5C4)cc3O2)CC1 (single isomer, unassigned) [563 (isomer B)]			< 1	≥ 3
O=C(N[C@H]1COc2ccc(Cl)cc2C1)c1cc2n(n1)CCN(CCC1CC1)C2 [Example 263]			< 1	1 to 3
N#Cc1ccc2c(c1)C[C@@H](NC(=O)c1cc3n(n1)CC(CCCOC(F)F)O3)CO2 (single isomer, unassigned) [248 (isomer A)]			< 1	1 to 3
N#CC1(COCC2CCn3nc(C(=O)N[C@H]4COc5ccc(C(F)(F)F)cc5C4)cc3O2)CC1 (single isomer, unassigned) [554 (isomer A)]			< 1	≥ 3
O=C(N[C@H]1COc2ccc(COCC(F)(F)F)cc2C1)c1cc2n(n1)CC(COCC1CC1)O2 (single isomer, unassigned) [186 (isomer A)]			< 10	≥ 3
O=C(N[C@H]1COc2ccc(-c3ccccn3)cc2C1)c1cc2n(n1)CCC(COCC1CC1)O2 (stereo partly drawn) [Example 110]	< 1	≥ 3		
O=C(N[C@H]1COc2ccc(Cl)cc2C1)c1cc2n(n1)CC(CCN1CC(F)(F)C1)O2 (stereo partly drawn) [Example 233]			< 1	< 1
O=C(N[C@H]1COc2ccc(C(F)(F)F)cc2C1O)c1cc2n(n1)CCN(CCC1CC1)C2 (stereo partly drawn) [Example 593]			< 10	1 to 3
O=C(N[C@H]1COc2ccc(Cl)cc2C1)c1cc2n(n1)CCN(CC(C(F)(F)F)C(F)(F)F)C2 [Example 493]			< 1	1 to 3
COC1c2cc(C(F)(F)F)ccc2OC[C@@H]1NC(=O)c1cc2n(n1)CCC(C(F)F)O2 (stereo partly drawn) [Example 568]			< 1	≥ 3

Structure (SMILES)	IC50 [1, 3] [µM]	IC50 [2, 4] [µM]	IC50 [1, 5] [µM]	IC50 [2, 6] [µM]
O=C(N[C@H]1COc2ccc(-c3cnccn3)cc2C1)c1cc2n(n1)CC(CCOC(F)F)O2 (single isomer, unassigned) [223 (isomer B)]			< 1	1 to 3
O=C(N[C@H]1COc2ccc(C(F)(F)F)cc2C1O)c1cc2n(n1)CC(CCCOCC(F)(F)F)O2 (single isomer, unassigned) [616 (isomer A)]			< 1	1 to 3
O=C(N[C@H]1COc2ccc(CCOC(F)F)cc2C1)c1cc2n(n1)CC(CCOC(F)F)O2 (single isomer, unassigned) [217 (isomer A)]			< 1	1 to 3
CN1Cc2nc(C(=O)NCCc3cccc(OCC4CCOCC4)c3)cn2CC1c1ccccc1 (stereo not drawn) [Example 327]			< 10	≥ 3
CCOc1cccc(CCNC(=O)c2cc3n(n2)CCC(c2ccccc2)O3)c1 (stereo not drawn) [Example 79]	< 10	≥ 3		
O=C(N[C@H]1COc2ccc(-c3ccccn3)cc2C1)c1cc2n(n1)CCC(C(F)(F)F)O2 (stereo partly drawn) [Example 382]			< 10	≥ 3
COc1cccc(OC2CCN(C(=O)c3cn4c(n3)CCC(C3CCCC3)C4)C2)n1 (stereo not drawn) [Example 28]	< 10	≥ 3		
O=C(N[C@H]1COc2ccccc2C1)c1cn2c(n1)CCC(OCCOC(F)(F)F)C2 (stereo partly drawn) [Example 321]			< 10	≥ 3
O=C(N[C@H]1COc2ccc(C(F)(F)F)cc2C1)c1cc2n(n1)CCN(CCOC1CCC1)C2 [Example 265]			< 1	≥ 3
CN(CCc1cccc(C(F)(F)F)c1)C(=O)c1cn2c(n1)CN(C)C(c1ccccc1)C2 (stereo not drawn) [Example 332]			< 10	≥ 3
N#Cc1ccc2c(c1)C[C@@H](NC(=O)c1cc3n(n1)CCC(c1ccccc1F)O3)CO2 (stereo partly drawn) [Example 359]			< 1	≥ 3
O=C(N[C@H]1COc2ccc(COCC(F)(F)F)cc2C1)c1cc2n(n1)CC(CCOC(F)F)O2 (stereo partly drawn) [Example 214]			< 1	1 to 3
O=C(N[C@H]1COc2ccc(CCOC(F)F)cc2C1)c1cc2n(n1)CC(COCC(F)(F)F)O2 (stereo partly drawn) [Example 189]			< 1	≥ 3
O=C(N[C@H]1COc2ccc(COCC(F)(F)F)cc2C1)c1cc2n(n1)CC(CCOC(F)F)O2 (single isomer, unassigned) [215 (isomer A)]			< 1	1 to 3
O=C(NC1COc2cccc(Br)c2C1)c1cc2n(n1)CCC(c1ccccc1)O2 (stereo not drawn) [Example 353]			< 10	≥ 3
O=C(N[C@H]1COc2ccc(-c3cnccn3)cc2C1)c1cc2n(n1)CC(CCOCC(F)(F)F)O2 (stereo partly drawn) [Example 456]			< 1	1 to 3
O=C(N[C@H]1COc2ccc(C(F)(F)F)cc2C1)c1cc2n(n1)CCC(COCC(F)(F)F)O2 (stereo partly drawn) [Example 432]			< 1	1 to 3
CC(C)(c1ccccn1)N1CCn2nc(C(=O)N[C@H]3COc4ccc(Cl)cc4C3)cc2C1 [Example 285]			< 1	1 to 3
CN1Cc2nc(C(=O)NCCc3cccc(OCC(F)(F)F)c3)cn2CC1c1ccc(C(F)(F)F)cc1 (stereo not drawn) [Example 325]			< 1	≥ 3
N#Cc1ccc2c(c1)C[C@@H](NC(=O)c1cc3n(n1)CC(COCC1CCC1)O3)CO2 (stereo partly drawn) [Example 464]			< 1	≥ 3
O=C(N[C@H]1COc2ccc(CC(F)F)cc2C1)c1cc2n(n1)CC(CCOC(F)F)O2 (single isomer, unassigned) [219 (isomer B)]			< 1	1 to 3
O=C(N[C@H]1COc2ccc(COCC(F)(F)F)cc2C1)c1cc2n(n1)CC(COCC1CC1)O2 (stereo partly drawn) [Example 185]			< 1	≥ 3
O=C(N[C@H]1COc2ccc(COCC(F)(F)F)cc2C1)c1cc2n(n1)CC(C(F)(F)F)O2 (single isomer, unassigned) [184 (isomer A)]			< 1	1 to 3
CCOCC1CCn2nc(C(=O)N[C@H]3COc4ccc(-c5ccccn5)cc4C3)cc2O1 (stereo partly drawn) [Example 123]	< 10	≥ 3		
